Experimental data published in US20230391760A1, “HETEROCYCLIC GLP-1 AGONISTS” (Gasherbrum Bio, Inc., priority 2020, published 2023).
pEC50: −log10 of the molar value.

Each compound was assayed against GLP-1 Receptor (Homo sapiens, UniProt P43220) (assay: GLP-1R agonist cAMP stimulation assay (HEK293/GLP1R/CRE-LUC cells, cAMP dynamic 2 Kit)). Details: HEK293/CRE-Luc cell line stably expressing the GLP-1 Receptor, 30 min at 37° C.
Format: cell-based
How it was run: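 HEK293 cells stably expressing human GLP-1R with CRE-luciferase, 1000 cells/well in DPBS with 0.5 mM IBMX and 0.1% BSA, treated with compound in 1/2-log serial dilution for 30 min at 37 °C. cAMP then detected by HTRF (cAMP-d2 plus anti-cAMP cryptate), 1 h at room temperature in the dark.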

GLP-1 Receptor, sequence (P43220 24-463, species assumed): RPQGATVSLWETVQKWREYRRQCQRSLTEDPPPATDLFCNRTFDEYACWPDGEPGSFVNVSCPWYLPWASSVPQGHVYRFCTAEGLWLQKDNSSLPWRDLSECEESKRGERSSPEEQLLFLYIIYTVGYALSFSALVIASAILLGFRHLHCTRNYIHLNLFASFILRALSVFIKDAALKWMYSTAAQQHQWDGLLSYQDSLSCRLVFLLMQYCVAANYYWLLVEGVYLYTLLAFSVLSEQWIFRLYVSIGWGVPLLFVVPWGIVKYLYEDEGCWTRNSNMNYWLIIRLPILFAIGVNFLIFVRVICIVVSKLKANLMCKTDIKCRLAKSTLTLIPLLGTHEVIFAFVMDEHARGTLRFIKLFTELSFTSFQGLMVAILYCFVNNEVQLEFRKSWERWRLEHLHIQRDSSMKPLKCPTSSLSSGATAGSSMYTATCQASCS

| SMILES | pEC50 |
| --- | --- |
| Cc1nnc(-c2ccc3c(c2)nc(CN2CCC(c4cccc5c4OC(C)(c4ccc(Cl)cc4F)O5)CC2)n3C[C@@H]2CCO2)[nH]1 (stereo partly drawn) [Compound 243a, 2-({4-[2-(4-chloro-2-fluorophenyl)-2-methyl-2H-1,3-benzodioxol-4-yl]piperidin-1-yl}methyl)-5-(5-methyl-4H-1,2,4-triazol-3-yl)-1-{[(2S)-oxetan-2-yl]methyl}-1H-1,3-benzodiazole] | 10.28 |
| CC1(c2ccc(Cl)cc2F)Oc2cccc(C3CCN(Cc4nc5cc(-c6nnc(C(F)(F)F)[nH]6)cnc5n4C[C@@H]4CCO4)CC3)c2O1 (mixture of isomers) [Compound 224a, 4-[2-(4-chloro-2-fluorophenyl)-2-methyl-2H-1,3-benzodioxol-4-yl]-1-[(3-{[(2S)-oxetan-2-yl]methyl}-6-[5-(trifluoromethyl)-4H-1,2,4-triazol-3-yl]-3H-imidazo[4,5-b]pyridin-2-yl)methyl]piperidine] | 10.74 |
| Cc1nnc(-c2cc3nc(CN4CCC(c5cccc6c5OC(C)(c5ccc(Cl)cn5)O6)CC4)n(C[C@@H]4CCO4)c3cn2)[nH]1 (stereo partly drawn) [Compound 267a, 5-chloro-2-[2-methyl-4-(1-{[6-(5-methyl-4H-1,2,4-triazol-3-yl)-3-{[(2S)-oxetan-2-yl]methyl}-3H-imidazo[4,5-c]pyridin-2-yl]methyl}piperidin-4-yl)-2H-1,3-benzodioxol-2-yl]pyridine] | 10.29 |
| N#Cc1ccc(COc2cccc(N3CCN(Cc4nc5cc(-c6nnc(C(F)(F)F)[nH]6)cnc5n4C[C@@H]4CCO4)CC3)n2)c(F)c1 [Compound 495a, 3-fluoro-4-{[(6-{4-[(3-{[(2S)-oxetan-2-yl]methyl}-6-[5-(trifluoromethyl)-4H-1,2,4-triazol-3-yl]-3H-imidazo[4,5-b]pyridin-2-yl)methyl]piperazin-1-yl}pyridin-2-yl)oxy]methyl}benzonitrile] | 11.08 |
| Fc1cc(Cl)ccc1COc1cc(C2CCN(Cc3nc4cc(-c5nnc(C(F)(F)F)[nH]5)nnc4n3C[C@@H]3CCO3)CC2)ccc1F [Compound 520a, 4-{3-[(4-chloro-2-fluorophenyl)methoxy]-4-fluorophenyl}-1-[(7-{[(2S)-oxetan-2-yl]methyl}-3-[5-(trifluoromethyl)-4H-1,2,4-triazol-3-yl]-7H-imidazo[4,5-c]pyridazin-6-yl)methyl]piperidine] | 9.47 |
| O=c1[nH]c(-c2cc3nc(CN4CC=C(c5cccc(OCc6ccc(Cl)cc6F)c5)CC4)n(C[C@@H]4CCO4)c3cn2)no1 [Compound 308a, 3-{2-[(4-{3-[(4-chloro-2-fluorophenyl)methoxy]phenyl}-1,2,3,6-tetrahydropyridin-1-yl)methyl]-3-{[(2S)-oxetan-2-yl]methyl}-3H-imidazo[4,5-c]pyridin-6-yl}-4,5-dihydro-1,2,4-oxadiazol-5-one] | 9.30 |
| CC1(c2ccc(Cl)cc2F)Oc2cccc(C3CCN(Cc4nc5cc(-c6noc(=O)[nH]6)ccc5n4C[C@@H]4CCO4)CC3)c2O1 (single isomer, unassigned) [Compound 239b] | 10.40 |
| O=C(Nc1ccc2c(c1)nc(CN1CCC(c3cccc(OCc4ccccc4)n3)CC1)n2C[C@@H]1CCO1)c1cccnc1 [Compound 204a, N-[2-({4-[6-(benzyloxy)pyridin-2-yl]piperidin-1-yl}methyl)-1-{[(2S)-oxetan-2-yl]methyl}-1H-1,3-benzodiazol-5-yl]pyridine-3-carboxamide] | 9.08 |
| CC1(c2ccc(Cl)cc2F)Oc2cccc(C3CCN(Cc4nc5cc(-c6nnc(C(F)(F)F)[nH]6)cnc5n4C[C@@H]4CCCO4)CC3)c2O1 (stereo partly drawn) [Compound 246a, 4-[2-(4-chloro-2-fluorophenyl)-2-methyl-2H-1,3-benzodioxol-4-yl]-1-[(3-{[(2S)-oxolan-2-yl]methyl}-6-[5-(trifluoromethyl)-4H-1,2,4-triazol-3-yl]-3H-imidazo[4,5-b]pyridin-2-yl)methyl]piperidine] | 9.64 |
| O=C(Nc1ccc2c(c1)nc(CN1CCC(c3cccc(OCc4ccc(Cl)cc4F)n3)CC1)n2C[C@@H]1CCO1)C1COCCO1 (stereo partly drawn) [Compound 172a, N-{2-[(4-{6-[(4-chloro-2-fluorophenyl)methoxy]pyridin-2-yl}piperidin-1-yl)methyl]-1-{[(2S)-oxetan-2-yl]methyl}-1H-1,3-benzodiazol-5-yl}-1,4-dioxane-2-carboxamide] | 9.51 |
| CO[C@@H](C)Cn1c(CN2CCC(c3cccc4c3O[C@@](C)(c3ccc(Cl)cc3F)O4)CC2)nc2cc(-c3nnc(C(F)(F)F)[nH]3)ncc21 [Compound 420a, 4-[(2S)-2-(4-chloro-2-fluorophenyl)-2-methyl-2H-1,3-benzodioxol-4-yl]-1-({3-[(2S)-2-methoxypropyl]-6-[5-(trifluoromethyl)-4H-1,2,4-triazol-3-yl]-3H-imidazo[4,5-c]pyridin-2-yl}methyl)piperidine] | 9.68 |
| CC1(c2ccc(Cl)cc2F)Oc2cccc(C3CCN(Cc4nc5cc(-c6nnc(C(F)(F)F)[nH]6)c(F)cc5n4C[C@@H]4CCO4)CC3)c2O1 (stereo partly drawn) [Compound 248a, 2-({4-[2-(4-chloro-2-fluorophenyl)-2-methyl-2H-1,3-benzodioxol-4-yl]piperidin-1-yl}methyl)-6-fluoro-1-{[(2S)-oxetan-2-yl]methyl}-5-[5-(trifluoromethyl)-4H-1,2,4-triazol-3-yl]-1H-1,3-benzodiazole] | 9.96 |
| O=c1[nH]ccn1-c1ccc2c(c1)nc(CN1CCC(c3cccc(OCc4ccc(Cl)cc4F)n3)CC1)n2C[C@@H]1CCO1 [Compound 122a, 1-{2-[(4-{6-[(4-chloro-2-fluorophenyl)methoxy]pyridin-2-yl}piperidin-1-yl)methyl]-1-{[(2S)-oxetan-2-yl]methyl}-1H-1,3-benzodiazol-5-yl}-2,3-dihydro-1H-imidazol-2-one] | 8.62 |
| C[C@]1(c2ccc(Cl)cc2F)Oc2cccc(C3CCN(Cc4nc5cc(-c6nnc(C7CC7)[nH]6)cnc5n4C[C@@H]4CCO4)CC3)c2O1 [Compound 282a, 4-[(2S)-2-(4-chloro-2-fluorophenyl)-2-methyl-2H-1,3-benzodioxol-4-yl]-1-{[6-(5-cyclopropyl-4H-1,2,4-triazol-3-yl)-3-{[(2S)-oxetan-2-yl]methyl}-3H-imidazo[4,5-b]pyridin-2-yl]methyl}piperidine] | 9.35 |
| Fc1cc(Cl)ccc1COc1ccc(F)c(N2CCN(Cc3nc4cc(-c5nnc(C(F)(F)F)[nH]5)nnc4n3C[C@@H]3CCO3)CC2)n1 [Compound 502a, 1-{6-[(4-chloro-2-fluorophenyl)methoxy]-3-fluoropyridin-2-yl}-4-[(7-{[(2S)-oxetan-2-yl]methyl}-3-[5-(trifluoromethyl)-4H-1,2,4-triazol-3-yl]-7H-imidazo[4,5-c]pyridazin-6-yl)methyl]piperazine] | 10.04 |
| O=C(O)c1ccc2c(c1)nc(CN1CC=C(c3cccc(OCc4ccc(Cl)cc4F)n3)CC1)n2C[C@@H]1CCO1 [Compound 111a, (S)-2-((6-((4-chloro-2-fluorobenzyl)oxy)-3′,6′-dihydro-[2,4′-bipyridin]-1′(2′H)-yl)methyl)-1-(oxetan-2-ylmethyl)-1H-benzo[d]imidazole-5-carboxylic acid] | 8.96 |
| Fc1cc(Cl)ccc1COc1cc(C2CCN(Cc3nc4cc(-c5nnc(C(F)(F)F)[nH]5)ncc4n3C[C@@H]3CCO3)CC2)ccc1F [Compound 470a, 4-{3-[(4-chloro-2-fluorophenyl)methoxy]-4-fluorophenyl}-1-[(3-{[(2S)-oxetan-2-yl]methyl}-6-[5-(trifluoromethyl)-4H-1,2,4-triazol-3-yl]-3H-imidazo[4,5-c]pyridin-2-yl)methyl]piperidine] | 9.66 |
| CC1(c2ccc(Cl)cn2)Oc2cccc(C3CCN(Cc4nc5cc(-c6nnc(C(F)(F)F)[nH]6)ccc5n4CC4(C#N)CC4)CC3)c2O1 (stereo not shown) [Compound 415, 1-{[2-({4-[2-(5-chloropyridin-2-yl)-2-methyl-2H-1,3-benzodioxol-4-yl]piperidin-1-yl}methyl)-5-[5-(trifluoromethyl)-4H-1,2,4-triazol-3-yl]-1H-1,3-benzodiazol-1-yl]methyl}cyclopropane-1-carbonitrile] | 9.85 |
| Cc1ncc(-c2ccc3c(c2)nc(CN2CCC(c4cccc5c4OC(C)(c4ccc(Cl)cc4F)O5)CC2)n3C[C@@H]2CCO2)cn1 (stereo partly drawn) [Compound 237a, 2-((4-(2-(4-chloro-2-fluorophenyl)-2-methylbenzo[d][1,3]dioxol-4-yl)piperidin-1-yl)methyl)-5-(2-methylpyrimidin-5-yl)-1-(((S)-oxetan-2-yl)methyl)-1H-benzo[d]imidazole] | 8.04 |
| Cc1nnc(-c2cc3nc(CN4CCC(c5cccc6c5O[C@@](C)(c5ccc(C#N)cc5F)O6)CC4)n(C[C@@H]4CCO4)c3cn2)[nH]1 [Compound 288a, 3-fluoro-4-[(2S)-2-methyl-4-(1-{[6-(5-methyl-4H-1,2,4-triazol-3-yl)-3-{[(2S)-oxetan-2-yl]methyl}-3H-imidazo[4,5-c]pyridin-2-yl]methyl}piperidin-4-yl)-2H-1,3-benzodioxol-2-yl]benzonitrile] | 11.06 |
| CC1(c2ccccc2)Oc2cccc(C3CCN(Cc4nc5cc(-c6nnc(C(F)(F)F)[nH]6)ccc5n4C[C@@H]4CCO4)CC3)c2O1 (stereo partly drawn) [Compound 405a, 2-{[4-(2-methyl-2-phenyl-2H-1,3-benzodioxol-4-yl)piperidin-1-yl]methyl}-1-{[(2S)-oxetan-2-yl]methyl}-5-[5-(trifluoromethyl)-4H-1,2,4-triazol-3-yl]-1H-1,3-benzodiazole] | 9.28 |
| CO[C@H](C)Cn1c(CN2CCC(c3cccc4c3O[C@@](C)(c3ccc(Cl)cn3)O4)CC2)nc2cc(-c3nnn[nH]3)ncc21 [Compound 429a, 5-chloro-2-[(2S)-4-[1-({3-[(2R)-2-methoxypropyl]-6-(1H-1,2,3,4-tetrazol-5-yl)-3H-imidazo[4,5-c]pyridin-2-yl}methyl)piperidin-4-yl]-2-methyl-2H-1,3-benzodioxol-2-yl]pyridine] | 9.62 |
